Test results from US11008346B2, “Beta-lactamase inhibitors” (priority 2014, dated 2021).
Like-named read-outs stand apart in the source and are kept apart here.

Legend:
[1] = target: T1, SHV-5 β-lactamase (Klebsiella pneumoniae, UniProt P0A3M1); assay: β-lactamase enzyme inhibition, SHV-5; assay type: biochemical
T1 construct: made in house; host or cells: E. coli BL21(DE3)
Outline: (§1)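 Enzyme + inhibitor, 15 min, 37° C; substrate added, absorbance read 10 min. OXA-1/p99 AmpC: nitrocefin 100 μM final, A486. KPC-2: imipenem, A300. SHV-5: cefotaxime, A260. IC50 = 50% drop in initial hydrolysis rate vs no-inhibitor control.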

[2] = target: T2, OXA-1 β-lactamase (Escherichia coli, UniProt P13661); assay: β-lactamase enzyme inhibition, OXA-1; assay type: biochemical; conditions: Nitrocefin 100 μM, 486 nm; 15 min at 37° C. preincubation; read-out: IC50 OXA-1 (Class D)
T2 construct: made in house; host or cells: E. coli BL21(DE3)
Outline: as §1

[3] = target: T3, VIM-2 metallo β-lactamase (Pseudomonas aeruginosa, UniProt Q9K2N0); assay: β-lactamase enzyme inhibition, VIM-2; assay type: biochemical; conditions: Nitrocefin 100 μM, 486 nm; 15 min at 37° C. preincubation; read-out: IC50 VIM-2 (Class B)
T3 construct: made in house; host or cells: E. coli BL21(DE3)
Outline: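 Inhibitor and enzyme sat together 15 min at 37° C before 100 μM nitrocefin (final) was added and 486 nm absorbance read for 10 min. IC50 is the concentration halving initial hydrolysis rate relative to uninhibited wells. Protein came from Q sepharose anion exchange at pH 7.5, repeated to >90% purity.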

[4] = tested on: K. pneumoniae A-1797 expressing KPC-2 and VIM-4; assay: broth microdilution MIC, K. pneumoniae KPC-2 and VIM-4; assay type: cell-based; conditions: Fixed Mero (meropenem) 4 μg/mL
Outline: (§2)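 Following CLSI broth microdilution, plates were read by eye for MIC after 16–20 h incubation at 37 °C. Each well held a fixed 4 μg/mL β-lactam overlay plus test compound serially halved from 32 to 0.25 μg/mL in CAMHB. Inocula came from 3–5 h broth cultures.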

[5] = target: T4, KPC-2 β-lactamase (Klebsiella pneumoniae, UniProt Q9F663); assay: β-lactamase enzyme inhibition, KPC-2; assay type: biochemical
T4 construct: made in house; host or cells: E. coli BL21(DE3)
Outline: as §1

[6] = target: T5, p99 AmpC β-lactamase (Enterobacter cloacae, UniProt P05364); assay: β-lactamase enzyme inhibition, p99 AmpC; assay type: biochemical
T5 construct: made in house; host or cells: E. coli BL21(DE3)
Outline: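 Inhibitor and enzyme were incubated 15 min at 37°C first. The enzyme was recombinant p99 AmpC, untagged, from E. coli BL21(DE3), purified by ion-exchange and size-exclusion chromatography.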

[7] = tested on: E. coli ESBL4 expressing CTX-M-15; assay: broth microdilution MIC, E. coli CTX-M-15; assay type: cell-based; conditions: Fixed CAZ (ceftazidime) 4 μg/mL
Outline: as §2

[8] = tested on: K. pneumoniae 156319 expressing KPC-3; assay: broth microdilution MIC, K. pneumoniae KPC-3; assay type: cell-based; conditions: Fixed Mero (meropenem) 4 μg/mL
Outline: as §2

[9] = tested on: E. cloacae 144200 expressing Class C P99 AmpC; assay: broth microdilution MIC, E. cloacae P99; assay type: cell-based; conditions: Fixed CAZ (ceftazidime) 4 μg/mL
Outline: as §2

[10] = tested on: S. aureus MSSA-7 producing penicillinase PC-1; assay: broth microdilution MIC, S. aureus PC-1; assay type: cell-based; conditions: Fixed Pip (piperacillin) 4 μg/mL
Outline: as §2

[11] = tested on: P. aeruginosa Ps296 expressing VIM-2; assay: broth microdilution MIC, P. aeruginosa VIM-2; assay type: cell-based; conditions: Fixed Mero (meropenem) 4 μg/mL
Outline: as §2

[12] = imipenem substrate, 300 nm, 15 min at 37° C. preincubation, read-out: IC50 KPC-2 (Class A)

T4 sequence (Q9F663 25-293, looked up): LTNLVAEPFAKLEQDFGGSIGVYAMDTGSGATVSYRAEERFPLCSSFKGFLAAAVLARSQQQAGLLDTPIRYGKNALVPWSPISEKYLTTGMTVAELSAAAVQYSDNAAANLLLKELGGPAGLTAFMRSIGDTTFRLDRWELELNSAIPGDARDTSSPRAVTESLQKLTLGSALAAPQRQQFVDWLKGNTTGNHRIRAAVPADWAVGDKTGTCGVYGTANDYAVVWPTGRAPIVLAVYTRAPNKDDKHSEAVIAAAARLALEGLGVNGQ
T5 sequence (P05364 21-381): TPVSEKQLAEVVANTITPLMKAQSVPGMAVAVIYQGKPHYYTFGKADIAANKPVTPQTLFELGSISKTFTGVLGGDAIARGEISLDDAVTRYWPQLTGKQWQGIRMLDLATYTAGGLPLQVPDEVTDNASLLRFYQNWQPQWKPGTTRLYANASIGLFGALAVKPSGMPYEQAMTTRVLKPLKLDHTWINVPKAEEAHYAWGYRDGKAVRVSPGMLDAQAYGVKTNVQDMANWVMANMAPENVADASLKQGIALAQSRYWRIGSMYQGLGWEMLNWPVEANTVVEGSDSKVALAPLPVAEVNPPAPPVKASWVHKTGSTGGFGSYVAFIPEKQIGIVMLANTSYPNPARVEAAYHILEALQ
T2 sequence (P13661 26-276): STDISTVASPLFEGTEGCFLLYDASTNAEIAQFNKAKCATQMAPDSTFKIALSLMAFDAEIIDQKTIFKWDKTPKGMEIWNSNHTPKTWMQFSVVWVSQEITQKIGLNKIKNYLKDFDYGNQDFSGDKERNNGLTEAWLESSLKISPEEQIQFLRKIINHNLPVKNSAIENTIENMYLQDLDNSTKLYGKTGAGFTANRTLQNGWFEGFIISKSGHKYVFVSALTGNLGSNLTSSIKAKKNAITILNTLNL
T1 sequence (P0A3M1 22-286): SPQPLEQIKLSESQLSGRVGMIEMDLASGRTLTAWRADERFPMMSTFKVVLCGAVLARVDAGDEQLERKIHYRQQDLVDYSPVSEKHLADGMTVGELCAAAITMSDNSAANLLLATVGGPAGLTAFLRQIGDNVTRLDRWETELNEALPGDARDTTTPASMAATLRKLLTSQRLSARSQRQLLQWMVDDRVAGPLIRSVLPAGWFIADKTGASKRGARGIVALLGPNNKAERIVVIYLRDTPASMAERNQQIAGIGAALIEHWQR

Structure (SMILES)	IC50 [1]	IC50 [2]	IC50 [3]	MIC of exemplary compounds in presence of fixed β-lactams, K.P. A-1797 KPC-2 VIM-4 [4]	IC50 [5, 12]	IC50 [6]	MIC of exemplary compounds in presence of fixed β-lactams, E. coli ESBL4 CTX-M-15 [7]	MIC of exemplary compounds in presence of fixed β-lactams, K.P. 156319 KPC-3 [8]	MIC of exemplary compounds in presence of fixed β-lactams, E. cl. 144200 p99 AmpC [9]	MIC of exemplary compounds in presence of fixed β-lactams, S. aureus MSSA-7 PC-1 [10]	MIC of exemplary compounds in presence of fixed β-lactams, P. aerug. Ps296 VIM-2 [11]	IC50 [5]
CC(CCC(=O)N[C@H]1Cc2cccc(C(=O)O)c2OB1O)=NO [Example 17, (R)-2-Hydroxy-3-(4-hydroxyimino-pentanoylamino)-3,4-dihydro-2H-benzo[e][1,2]oxaborinine-8-carboxylic acid]	< 100 nM	< 100 nM	1000 to 10000 nM	B (B represents the MIC in the presence of between 8 and 32 g/mL of a β-lactamase inhibitor)	< 100 nM	< 100 nM	C (C represents the MIC in the presence of ≤4 g/mL of a β-lactamase inhibitor)	B (B represents the MIC in the presence of between 8 and 32 g/mL of a β-lactamase inhibitor)	C (C represents the MIC in the presence of ≤4 g/mL of a β-lactamase inhibitor)	C (C represents the MIC in the presence of ≤4 g/mL of a β-lactamase inhibitor)	C (C represents the MIC in the presence of ≤4 g/mL of a β-lactamase inhibitor)	–
CON=C(C)CCC(=O)N[C@H]1Cc2cccc(C(=O)O)c2OB1O [Example 18, (R)-2-Hydroxy-3-(4-methoxyimino-pentanoylamino)-3,4-dihydro-2H-benzo[e][1,2]oxaborinine-8-carboxylic acid]	< 100 nM	< 100 nM	1000 to 10000 nM	A (A represents an MIC of the fixed β-lactam antibiotic in the presence of >32 g/mL of a β-lactamase inhibitor)	< 100 nM	< 100 nM	C (C represents the MIC in the presence of ≤4 g/mL of a β-lactamase inhibitor)	C (C represents the MIC in the presence of ≤4 g/mL of a β-lactamase inhibitor)	C (C represents the MIC in the presence of ≤4 g/mL of a β-lactamase inhibitor)	C (C represents the MIC in the presence of ≤4 g/mL of a β-lactamase inhibitor)	B (B represents the MIC in the presence of between 8 and 32 g/mL of a β-lactamase inhibitor)	–
CNC(=O)CCC(=O)N[C@H]1Cc2cccc(C(=O)O)c2OB1O [Example 19, (R)-2-Hydroxy-3-(3-methylcarbamoyl-propionylamino)-3,4-dihydro-2H-benzo[e][1,2]oxaborinine-8-carboxylic acid]	< 100 nM	< 100 nM	1000 to 10000 nM	B (B represents the MIC in the presence of between 8 and 32 g/mL of a β-lactamase inhibitor)	< 100 nM	< 100 nM	C (C represents the MIC in the presence of ≤4 g/mL of a β-lactamase inhibitor)	C (C represents the MIC in the presence of ≤4 g/mL of a β-lactamase inhibitor)	C (C represents the MIC in the presence of ≤4 g/mL of a β-lactamase inhibitor)	B (B represents the MIC in the presence of between 8 and 32 g/mL of a β-lactamase inhibitor)	A (A represents an MIC of the fixed β-lactam antibiotic in the presence of >32 g/mL of a β-lactamase inhibitor)	–
CC(=O)NCCC(=O)N[C@H]1Cc2cccc(C(=O)O)c2OB1O [Example 20, (R)-3-(3-Acetylamino-propionylamino)-2-hydroxy-3,4-dihydro-2H-benzo[e][1,2]oxaborinine-8-carboxylicacid]	< 100 nM	< 100 nM	1000 to 10000 nM	B (B represents the MIC in the presence of between 8 and 32 g/mL of a β-lactamase inhibitor)	< 100 nM	< 100 nM	C (C represents the MIC in the presence of ≤4 g/mL of a β-lactamase inhibitor)	C (C represents the MIC in the presence of ≤4 g/mL of a β-lactamase inhibitor)	C (C represents the MIC in the presence of ≤4 g/mL of a β-lactamase inhibitor)	B (B represents the MIC in the presence of between 8 and 32 g/mL of a β-lactamase inhibitor)	A (A represents an MIC of the fixed β-lactam antibiotic in the presence of >32 g/mL of a β-lactamase inhibitor)	–
CS(=O)(=O)CCC(=O)N[C@H]1Cc2cccc(C(=O)O)c2OB1O [Example 21, (R)-2-Hydroxy-3-(3-methanesulfonyl-propionylamino)-3,4-dihydro-2H-benzo[e][1,2]oxaborinine-8-carboxylic acid]	< 100 nM	< 100 nM	1000 to 10000 nM	B (B represents the MIC in the presence of between 8 and 32 g/mL of a β-lactamase inhibitor)	< 100 nM	< 100 nM	C (C represents the MIC in the presence of ≤4 g/mL of a β-lactamase inhibitor)	C (C represents the MIC in the presence of ≤4 g/mL of a β-lactamase inhibitor)	C (C represents the MIC in the presence of ≤4 g/mL of a β-lactamase inhibitor)	C (C represents the MIC in the presence of ≤4 g/mL of a β-lactamase inhibitor)	A (A represents an MIC of the fixed β-lactam antibiotic in the presence of >32 g/mL of a β-lactamase inhibitor)	–
CS(=O)(=O)NCCC(=O)N[C@H]1Cc2cccc(C(=O)O)c2OB1O [Example 22, (R)-2-Hydroxy-3-(3-methanesulfonylamino-propionylamino)-3,4-dihydro-2H-benzo[e][1,2]oxaborinine-8-carboxylic acid]	< 100 nM	< 100 nM	1000 to 10000 nM	B (B represents the MIC in the presence of between 8 and 32 g/mL of a β-lactamase inhibitor)	–	< 100 nM	C (C represents the MIC in the presence of ≤4 g/mL of a β-lactamase inhibitor)	C (C represents the MIC in the presence of ≤4 g/mL of a β-lactamase inhibitor)	C (C represents the MIC in the presence of ≤4 g/mL of a β-lactamase inhibitor)	C (C represents the MIC in the presence of ≤4 g/mL of a β-lactamase inhibitor)	B (B represents the MIC in the presence of between 8 and 32 g/mL of a β-lactamase inhibitor)	< 100 nM
